Experimental data published in patent publication US20080027042A1, “Novel Aminopyridine Derivatives Having Aurora a Selective Inhibitory Action” (priority 2004, published 2008).

Legend:
[1] = target: T1, Aurora A (Homo sapiens, UniProt O14965); assay: Aurora A inhibitory action (33P-ATP kinase assay, Kemptide substrate); type: biochemical; settings: 20 μM ATP, 30° C., 20 minutes
T1 construct: histidine tag (N); made in house; host or cells: Escherichia coli BL21-CodonPlus(DE3)-RIL
T1 sequence (O14965 1-403): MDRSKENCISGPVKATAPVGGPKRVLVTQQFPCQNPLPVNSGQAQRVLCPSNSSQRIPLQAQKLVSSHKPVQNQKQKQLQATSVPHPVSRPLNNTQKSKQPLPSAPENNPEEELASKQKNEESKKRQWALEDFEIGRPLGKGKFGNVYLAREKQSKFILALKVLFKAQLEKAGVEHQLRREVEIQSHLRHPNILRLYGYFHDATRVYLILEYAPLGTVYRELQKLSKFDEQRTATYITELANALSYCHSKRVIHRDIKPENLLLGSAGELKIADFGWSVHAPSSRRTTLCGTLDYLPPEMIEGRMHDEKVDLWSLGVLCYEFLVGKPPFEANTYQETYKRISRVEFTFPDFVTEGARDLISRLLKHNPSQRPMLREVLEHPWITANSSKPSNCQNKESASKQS
Method in brief: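 His-tagged Aurora A expressed in E. coli, Ni-purified; reaction in 50 mM Tris pH 7.4, 15 mM Mg acetate, 0.2 mM EDTA with 100 μM Kemptide, 20 μM ATP plus [γ-33P]ATP, 20 min at 30 °C. Phosphopeptide captured on P81 filters and counted by scintillation; DMSO control.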

[2] = target: T2, Aurora B (Homo sapiens, UniProt Q96GD4); assay: Aurora B inhibitory action (33P-ATP kinase assay, Kemptide substrate); type: biochemical; settings: 100 μM ATP, 30° C., 20 minutes
T2 construct: histidine tag (N); made in house; host or cells: Escherichia coli BL21-CodonPlus(DE3)-RIL
Method in brief: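 His-tagged Aurora B expressed in E. coli, reacted with 100 μM Kemptide, 100 μM ATP plus [γ-33P]ATP in Tris pH 7.4, 15 mM Mg acetate, 0.2 mM EDTA, 30 °C, 20 min. Peptide captured on P81 filters for scintillation counting; compounds added from DMSO dilutions.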

[3] = test system: Human cervical cancer cells (HeLa S3); assay: Cell growth inhibitory effect, WST-8 method; type: cell-based; settings: 72 h, HeLa S3, three days incubation
Source text: Method for Judging the Pharmaceutical Effect Using cells
Fetal calf serum (FCS) was purchased from Moregate Biotech, and DMEM medium was purchased from Invitrogen Corp. WST-8 was purchased from Kishida Chemical Co., Ltd.
(§1) Human cervical cancer cells (HeLa S3) were obtained from the American Type Culture Collection (ATCC).
(§2) c) Method of Judging the Effect
Cells were suspended in a DMEM medium containing 10% FCS, and the cell suspension was dispensed to a 96-well plastic plate at a rate of 750 cells/l 00 microliters per well. The plate was incubated overnight in 5% CO2-95% air at 37° C. A drug was subjected to graded dilution in dimethylsulfoxide and further diluted with a DMEM medium containing 10% FCS. Then, the dilution was dispensed to the plate on which cells had been disseminated, at a rate of 100 microliters per well. The plate was incubated for further three days in 5% CO2-95% air at 37° C. Cell growth after incubation was measured by the WST-8 method (H. Tominaga, et al., Anal. Commun., 36, 47-50 (1999)). Here, the WST-8 method refers to a method in which 20 microliters of a WST-8 reagent solution is added to each well, incubation is conducted at 37° C. for 45 minutes, the plate is stirred, and the amount of formazan produced is measured by a calorimetric method to determine the inhibitory rate of the drug. The concentration for 50% growth inhibition (EC50, IM) of the compound was determined.

[4] = test system: Human cervical cancer cells (HeLa S3); assay: Effect by combined use of drugs in cells (with paclitaxel), WST-8 method; type: cell-based; settings: three days; for inhibition at 1 µM: HeLa S3, compound 1.0 μM alone; for inhibition at 3 µM: HeLa S3, compound 3.0 μM alone; for inhibition at 0.3 µM: HeLa S3, compound 0.3 μM alone
Source text: Method for Judging the Effect by Combined Use of Drugs in Cells
Fetal calf serum (FCS) was purchased from Moregate Biotech, DMEM medium from Invitrogen Corp., paclitaxel (tradename: Taxol) from Sigma-Aldrich, Inc., and WST-8 from Kishida Chemical Co., Ltd.
as §1, §2
Cells were suspended in a DMEM medium containing 10% FCS, and the cell suspension was dispensed to two 96-well plastic plates at a rate of 750 cells/100 microliters per well. The plates were incubated overnight in 5% CO2-95% air at 37° C. A drug was subjected to graded dilution in dimethylsulfoxide and flurther diluted with DMSO or with a DMEM medium containing 10% FCS and also containing 2 nM paclitaxel. Then, the dilutions were each dispensed to one of the plates on which cells had been disseminated, at a rate of 100 microliters per well. The final concentration of paclitaxel at this stage was 1 nM. Also, the concentrations in the case of sole administration of the compound according to the invention were 0.03, 0.1, 0.3, 1 and 3 μM. The plates were incubated for further three days in 5% CO2-95% air at 37° C. Cell growth after incubation was measured by the WST-8 method (H. Tominaga, et al., Anal. Commun., 36, 47-50 (1999)). Here, the WST-8 method refers to a method in which 20 microliters of a WST-8 reagent solution is added to each well, incubation is conducted at 37° C. for 45 minutes, the plate is stirred, and the amount of formazan produced is measured by a colorimetric method to determine the inhibitory rate of the drug. The growth inhibitory effects of paclitaxel and of the compound according to the invention were determined, with the value obtained in sole treatment of DMSO being defined as 0%.

[5] = HeLa S3, compound 1.0 μM + paclitaxel 1 nM
[6] = Homo sapiens, HeLa S3, 72 h, read-out: Cell growth inhibitory effect by sole administration of the compound of Example (%)
[7] = HeLa S3, compound 3.0 μM + paclitaxel 1 nM
[8] = HeLa S3, compound 0.3 μM + paclitaxel 1 nM

T2 sequence (Q96GD4 whole entry): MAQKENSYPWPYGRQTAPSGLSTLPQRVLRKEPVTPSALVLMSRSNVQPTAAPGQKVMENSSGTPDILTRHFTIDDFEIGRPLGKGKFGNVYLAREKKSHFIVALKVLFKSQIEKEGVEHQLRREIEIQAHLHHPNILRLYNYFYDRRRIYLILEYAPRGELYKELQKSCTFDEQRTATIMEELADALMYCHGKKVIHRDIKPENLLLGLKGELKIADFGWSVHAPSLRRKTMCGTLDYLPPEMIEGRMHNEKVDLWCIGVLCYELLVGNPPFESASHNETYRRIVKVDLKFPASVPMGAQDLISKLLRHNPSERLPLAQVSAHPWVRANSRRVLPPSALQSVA

Structure (SMILES)	IC50 [1]	IC50 [2]	IC50 [3]	Cell growth inhibitory effect by combined administration of paclitaxel and the compound of Example (%) [4, 5]	inhibition at 1 µM [4, 6]	Cell growth inhibitory effect by combined administration of paclitaxel and the compound of Example (%) [4, 7]	inhibition at 3 µM [4, 6]	Cell growth inhibitory effect by combined administration of paclitaxel and the compound of Example (%) [4, 8]	inhibition at 0.3 µM [4, 6]	Cell growth inhibitory effect by combined administration of paclitaxel and the compound of Example (%) ([4]; HeLa S3, compound 0.1 μM + paclitaxel 1 nM)	inhibition at 0.1 µM ([4]; Homo sapiens, HeLa S3, 72 h, HeLa S3, compound 0.1 μM alone, read-out: Cell growth inhibitory effect by sole administration of the compound of Example (%))
Cc1cc(Nc2cccc(CN3CCN(C(=O)c4cccc(C(F)(F)F)c4Cl)CC3)n2)n[nH]1 [Example 30, 6-((4-(2-chloro-3-(trifluoromethyl)benzoyl)piperazin-1-yl)methyl)-N-(5-methyl-1H-pyrazol-3-yl)pyridin-2-amine]	1.1 nM	320 nM	2500 nM	90.1%	29.1%						
O=C(O)C(F)(F)F.O=C(c1cccc(Cl)c1Cl)N1CCN(Cc2cccc(Nc3ncns3)n2)CC1 [Example 36, 6-((4-(2,3-dichlorobenzoyl)piperazin-1-yl)methyl)-N-1,2,4-thiadiazol-5-ylpyridin-2-amine trifluoroacetate]	2.6 nM	3200 nM	6800 nM			83.4%	17.2%				
O=C(c1ccccc1C(F)(F)F)N1CCN(Cc2cccc(Nc3ncns3)n2)CC1 [Example 39, 6-((4-(2-(trifluoromethyl)benzoyl)piperazin-1-yl)methyl)-N-1,2,4-thiadiazol-5-ylpyridin-2-amine]	67 nM	9100 nM	11000 nM			72.2%	5.4%				
Cc1cc(Nc2cncc(CN3CCN(C(=O)c4cccc(Cl)c4F)CC3)n2)n[nH]1 [Example 56, 6-((4-(3-chloro-2-fluorobenzoyl)piperazin-1-yl)methyl)-N-(5-methyl-1H-pyrazol-3-yl)pyrazin-2-amine]	2.1 nM	2900 nM	1400 nM					81.8%	6.5%		
O=C(c1cccc(Cl)c1F)N1CCN(Cc2cncc(Nc3nccs3)n2)CC1 [Example 58, 6-((4-(3-chloro-2-fluorobenzoyl)piperazin-1-yl)methyl)-N-thiazol-2-ylpyrazin-2-amine]	4.8 nM	9900 nM	3000 nM	81.4%	0%						
O=C(c1ccco1)N1CCN(Cc2cccc(Nc3ncc(Cl)s3)n2)CC1 [Example 62]	12 nM	380 nM	860 nM							68.0%	2.9%
O=C(c1cccs1)N1CCN(Cc2cccc(Nc3ncc(Cl)s3)n2)CC1 [Example 66, 6-((4-(2-thienylcarbonyl)piperazin-1-yl)methyl)-N-(5-chlorothiazol-2-yl)pyridin-2-amine]	3.4 nM	250 nM	2900 nM	60.9%	7.2%						
Cc1nc(C(=O)N2CCN(Cc3cccc(Nc4ncc(Cl)s4)n3)CC2)cs1 [Example 68, 6-((4-((2-methyl-thiazol-4-yl)carbonyl)piperazin-1-yl)methyl)-N-(5-chlorothiazol-2-yl)pyridin-2-amine]	11 nM	670 nM	5100 nM			71.8%	27.3%				
N#Cc1cccc(C(=O)N2CCN(Cc3cccc(Nc4ncc(Cl)s4)n3)CC2)c1 [Example 71, 6-((4-(3-cyanobenzoyl)piperazin-1-yl)methyl)-N-(5-chlorothiazol-2-yl)pyridin-2-amine]	3 nM	370 nM	3000 nM	60.7%	13.2%						
O=C(Cc1ccc(Cl)cc1)N1CCN(Cc2cccc(Nc3ncc(Cl)s3)n2)CC1.O=C(O)C(F)(F)F [Example 77, 6-((4-((4-chlorophenyl)acetyl)piperazin-1-yl)methyl)-N-(5-chlorothiazol-2-yl)pyridin-2-amine trifluoroacetate]	4.1 nM	1300 nM	1600 nM					51.8%	2.2%		

More lines, main results first:

IC50 [1]	IC50 [2]	IC50 [3]	Structure (SMILES)	Cell growth inhibitory effect by combined administration of paclitaxel and the compound of Example (%) [4, 5]	inhibition at 1 µM [4, 6]	Cell growth inhibitory effect by combined administration of paclitaxel and the compound of Example (%) [4, 7]	inhibition at 3 µM [4, 6]	Cell growth inhibitory effect by combined administration of paclitaxel and the compound of Example (%) [4, 8]	inhibition at 0.3 µM [4, 6]	Cell growth inhibitory effect by combined administration of paclitaxel and the compound of Example (%) ([4]; HeLa S3, compound 0.1 μM + paclitaxel 1 nM)	inhibition at 0.1 µM ([4]; Homo sapiens, HeLa S3, 72 h, HeLa S3, compound 0.1 μM alone, read-out: Cell growth inhibitory effect by sole administration of the compound of Example (%))
0.99 nM	1900 nM	6500 nM	O=C(c1cccc(C(F)(F)F)c1F)N1CCN(Cc2cccc(Nc3ncns3)n2)CC1 [Example 40, 6-((4-(2-fluoro-3-(trifluoromethyl)benzoyl)piperazin-1-yl)methyl)-N-1,2,4-thiadiazol-5-ylpyridin-2-amine]	76.9%	6.5%						
6.1 nM	1400 nM	4100 nM	O=C(c1cccc(Cl)c1F)N1C[C@@H]2C[C@H]1CN2Cc1cncc(Nc2cc[nH]n2)n1 [Example 46, 6-(((1S,4S)-5-(3-chloro-2-fluorobenzoyl)-2,5-diazabicyclo[2.2. 1]hept-2-yl)methyl)-N-1H-pyrazol-3-ylpyrazin-2-amine]	75.0%	8.5%						
2.2 nM	5400 nM	3600 nM	O=C(c1cccc(Cl)c1F)N1CCN(Cc2cncc(Nc3cc[nH]n3)n2)CC1 [Example 50, 6-((4-(3-chloro-2-fluorobenzoyl)piperazin-1-yl)methyl)-N-1H-pyrazol-3-ylpyrazin-2-amine]	82.0%	6%						
0.44 nM	89 nM	11000 nM	O=C(c1cccc(Cl)c1F)N1CCN(Cc2cccc(Nc3ncc(Cl)s3)n2)CC1 [Example 75, 6-((4-(3-chloro-2-fluorobenzoyl)piperazin-1-yl)methyl)-N-(5-chlorothiazol-2-yl)pyridin-2-amine]					91.5%	27.1%		
